Experimental data taken from patent US5414001A, “Antineoplastic pyrrolo[4,3,2-de]quinolin-8(1H)-ones” (American Cyanamid Company, priority 1993, dated 1995).
In brackets after ≈: the same amount, converted by molar mass. Several values for one entry are separate records, joined by “and”; a condition that tells them apart may be missing. Equal entries are not always repeated. Structures can show the parent of a compound that is named as a salt. Where two headings read alike, the source gives them in different places.

How the values were obtained:
[1] = tested on: panel of >20 human tumor cell lines; test: In vitro tumor panel evaluation, Sulforhodamine B (SRB) cytotoxicity assay; format: cell-based; conditions: for IC50: Homo sapiens
[2] = tested on: DDP (Cisplatin resistant ovarian carcinoma cell line) / S (A2780); test: SRB cytotoxicity ratio DDP/S (cisplatin resistance); format: cell-based, human
[3] = tested on: MIP / SW620; test: SRB cytotoxicity ratio MIP/SW620 (MDR, P-glycoprotein resistance); format: cell-based, human; conditions: 2880 min
[4] = tested on: HCT15 / SKBR3; test: SRB cytotoxicity ratio HCT15/SKBR3 (topoisomerase resistance); format: cell-based, human; conditions: 2880 min
[5] = tested on: Ovcar3 human ovarian carcinoma; parameters: species or system human tumor in Balb/C nu/nu athymic mice; conditions: in vivo
[6] = tested on: CaCo2 / CX1; conditions: human, Caco-2, 48 h
Method: (§4) The cytotoxic activity of the pyrrolo[4,3,2-de]quinolin-8(1H)-ones against a panel of >20 human tumor cell lines is determined using the Sulforhodamine B protein dye-binding colorimetric cytotoxicity assay (SRB) described by Skehan et al. (Journal National Cancer Institute 82:1107-1112, 1990), as modified by Monks et al., (Journal National Cancer Institute 83: 757-766, 1991). […] Positive controls (i.e., etoposide) are included in every experiment. Treatments are for 48 hours, after which cells are fixed in 10% trichloroacetic acid (10% final concentration), washed five times with deionized water and stained with SRB solution (0.4% in glacial acetic acid). Protein-bound stain is solubilized with 0.1 ml tris buffer and the adsorbance values are recorded with a microplate reader. Duplicate plates of cells are fixed with trichloroacetic acid at the time of drug addition to establish To values, as described by Monks et al. (JNCl, 83: 757-766, 1991). The effect of drug treatments over the five-long range of concentrations is calculated using the formula, T--To/C--To, to determine the IC50 values.
(§5) 3) The ratio values for DDP/S; CaCo2/CX1; MIP/SW620, and; HCT15/SKBR3 refer to the IC50 value for resistant cell lines included in the tumor cell panel, divided by the IC50 value for corresponding drug sensitive cell lines. For example, DDP is a Cisplatin resistant ovarian carcinoma cell line, and S is the corresponding parent drug sensitive ovarian carcinoma cell line (A2780). […] CaCo2 is a slow growing non P-glycoprotein multidrug resistant colon carcinoma cell line. MIP is a colon carcinoma cell line that expresses P-glycoprotein and is multidrug resistant; SW620 is a drug sensitive colon carcinoma cell line. HCT15 is a colon carcinoma cell line that is resistant to topoisomerase inhibitors and SKBR3 is a breast carcinoma that is very sensitive to topoisomerase inhibitors.

[7] = tested on: CaCo2 / CX1; test: SRB cytotoxicity ratio CaCo2/CX1 (growth kinetics); conditions: IC50 resistant / IC50 sensitive cell line, 2880 min
Method: as §4, §5

[8] = tested on: P388 murine leukemia; parameters: species or system murine (mice); conditions: mouse, in vivo
[9] = tested on: BR513; format: cell-based
[10] = tested on: S. aureus 375; test: Antibacterial agar diffusion assay; format: cell-based; conditions: H = hazy zones
[11] = tested on: S. aureus meth r 310; test: Antibacterial agar diffusion assay; format: cell-based; conditions: H = hazy zones
[12] = tested on: E. faecium 379; test: Antibacterial agar diffusion assay; format: cell-based; conditions: H = hazy zones
Method: (§1) One hundred fifty milliliters of agar medium are seeded with 1 ml of diluted culture and aseptically poured into 9 inch×9 inch Nunc bioassay plates. The twenty-five microliters of the test sample dissolved in DMSO are placed in 5.5 mmwells that are cut into agar layer which has been pre-seeded with the test bacterial strains. The plates are incubated at 37° C. for 18-24 hours. Zones of inhibition are recorded.
(§2) ALL SAMPLES IN 20% DMSO
(§3) AGAR DIFFUSION ASSAY 25 microliter sample in 5.5 mm well

[13] = tested on: S. aureus cipro r 400; test: Antibacterial agar diffusion assay; format: cell-based; conditions: 64 microgram/ml; H = hazy zones
Method: as §1, §2, §3

[14] = tested on: E. coli 300; test: Antibacterial agar diffusion assay; format: cell-based; parameters: concentration or dose not given beside the values
[15] = tested on: B. subtilis 17; test: Antibacterial agar diffusion assay; format: cell-based; conditions: H = hazy zones
[16] = tested on: K. pneumoniae 53; test: Antibacterial agar diffusion assay; format: cell-based; conditions: H = hazy zones
[17] = tested on: C. freundii 395; test: Antibacterial agar diffusion assay; format: cell-based; conditions: 1000 microgram/ml; H = hazy zones
[18] = human, ddp/s ovarian carcinoma cells, 2880 min
[19] = Mean IC50 value for all 20 cell lines, 48 hours, read-out: AVG IC50
[20] = least sensitive cell line, 48 hours, read-out: MAX IC50
[21] = most sensitive cell line, 48 hours, read-out: MIN IC50
[22] = IC50 resistant / IC50 sensitive cell line, cisplatin resistance, 2880 min
[23] = IC50 resistant / IC50 sensitive cell line, MDR (pglycoprotein) resistance
[24] = IC50 resistant / IC50 sensitive cell line, topoisomerase resistance

Compound | CaCO2/CX1 IC50 ratio [6] | IC50 [1, 19] [mg/L] | IC50 [1, 20] [mg/L] | IC50 [1, 21] [mg/L] | DDP/S IC50 ratio [2, 22] | MIP/SW620 IC50 ratio [3, 23] | HCT15/SKBR3 IC50 ratio [4, 24] | further results
COc1cc([C@@H]2c3cc4c(cc3[C@@H](O[C@@H]3O[C@@H]5CO[C@@H](C)O[C@H]5[C@H](O)[C@H]3O)[C@H]3COC(=O)[C@H]23)OCO4)cc(OC)c1O [Etoposide, etoposide, reference compound] | 4.2 |  |  |  |  |  |  | IC50 ([1]; 48 h, read-out: AVG IC50): 8.7 mg/L (≈ 14.8 µM); IC50 ([1]; 48 h, read-out: MAX IC50): 27.9 mg/L (≈ 47.4 µM); IC50 ([1]; 48 h, read-out: MIN IC50): 0.12 mg/L (≈ 0.204 µM); cross resistance in the cisplatin resistant cell line DDP [2]: cross resistant; DDP/S IC50 ratio [2, 18]: 53.0; IC50 value of DDP higher than the parent cell line [2, 18]: 53 fold; MIP/SW620 IC50 ratio ([3]; human, mip/sw620 cells): 1.9; HCT15/SKBR3 IC50 ratio ([4]; human, hct15/skbr3 cells): 22.3; HCT15 more resistant than SKBR3 ([4]; human, hct15/skbr3 cells): 22 fold; Ovcar3 Min T/C % [5]: 62%
Cn1cc2ccnc3c2c1C(=O)C(N)=C3.O=C(O)C(F)(F)F [Example 2, 7-amino-1-methyl-pyrrolo[4,3,2-de]quinolin-8(1H)-one trifluoroacetate] |  | 18 | 25.1 | 2.03 | 1.0 | 0.9 | 6.7 | CaCO2/CX1 IC50 ratio [7]: 0.6
C[N+]1=C2C=C(N)C(=O)c3[nH]cc(c32)CC1 [Example 3, 7-amino-1,3,4,8-tetrahydro-5-methyl-8-oxo-pyrrolo[4,3,2-de]quinolinium trifluoroacetate] |  |  |  |  |  | 1.1 | 1.9 | IC50 ([1]; 48 h, read-out: AVG IC50): 1.7 mg/L; IC50 ([1]; 48 h, read-out: MAX IC50): 10 mg/L; IC50 ([1]; 48 h, read-out: MIN IC50): 0.06 mg/L; Ovcar3 Min T/C % [5]: 37%; P388 ILS % [8]: 18%; BIA BR513 ([9]; 1000 microgram/ml, T = toxic): 8T; CaCO2/CX1 IC50 ratio [7]: 0.3
Cn1cc2c3c1C(=O)C(N/C=C/c1ccc(O)cc1)=CC3=NCC2.O=C(O)C(F)(F)F [Example 5, (E)-7-[[2-(4-hydroxyphenyl)ethenyl]amino]-1-methyl-3,4-dihydropyrrolo[4,3,2-de]quinolin-8(1H)-one trifluoroacetate] |  | 2.3 | 3.44 | 1.23 | 1.1 | 1.1 | 0.3 | CaCO2/CX1 IC50 ratio [7]: 1.5
O=C1C(NC2Cc3cc(Br)c(O)cc3S2)=CC2=NCCc3c[nH]c1c32 (centres unmarked) [Example 6, trifluoroacetate] | 6.3 |  |  |  | 1.8 |  |  | more potent than the reference topoisomerase inhibitor, etoposide [1]: 1 log; MIP/SW620 IC50 ratio ([3]; human, mip/sw620 cells): 5.1; HCT15/SKBR3 IC50 ratio ([4]; human, hct15/skbr3 cells): 3.5; ZONES OF INHIBITION ([10]; 250 microgram/ml): 7H; ZONES OF INHIBITION ([11]; 64 microgram/ml): 8 MM; ZONES OF INHIBITION ([11]; 250 microgram/ml): 9 MM; ZONES OF INHIBITION ([11]; 1000 microgram/ml): 10 MM; ZONES OF INHIBITION ([12]; 64 microgram/ml): 9H; ZONES OF INHIBITION ([12]; 250 microgram/ml): 11H; ZONES OF INHIBITION ([12]; 1000 microgram/ml): 12H; ZONES OF INHIBITION [13]: 11H; ZONES OF INHIBITION ([14]; trifluoroacetate): 12 and 11 and 9; BIA BR513 [9]: 8T
C[N+]1=C2C=C(NCc3cccc4ccccc34)C(=O)c3[nH]cc(c32)CC1 [Example 44, 1,3,4,8-Tetrahydro-5-methyl-7-[(1-naphthalenylmethyl)amino]-8-oxo-pyrrolo[4,3,2-de]quinolinium trifluoroacetate] | 32.0 | 5.6 | 27.1 | 0.02 | 11.3 | 67.8 | 1140.0 | 
C[N+]1=C2C=C(NCc3ccccc3)C(=O)c3[nH]cc(c32)CC1 [Example 46, 1,3,4,8-Tetrahydro-5-methyl-8-oxo-7-[(phenylmethyl)amino]-pyrrolo[4,3,2-de]quinolinium trifluoroacetate] | 5.4 | 7 | 22.3 | 0.2 | 1.6 | 8.3 | 113.0 | 
C[N+]1=C2C=C(NCc3ccc(O)cc3)C(=O)c3[nH]cc(c32)CC1 [Example 49, 1,3,4,8-Tetrahydro-7-[[(4-hydroxyphenyl)methyl]amino]-5-methyl-8-oxo-pyrrolo[4,3,2-de]quinolin-8 (1H)-one trifluoroacetate] | 1.0 | 3.3 | 13.9 | 0.92 | 1.1 | 4.2 | 15.4 | 
CN1CCc2cn(C)c3c2C1=CC(=O)C3=O [Example 52, 1,3,4,5-Tetrahydro-1,5-dimethyl-pyrrolo[4,3,2-de]quinoline-7,8-dione] | 0.8 | 25 (≈ 116 µM) | 50 (≈ 231 µM) | 12.3 (≈ 56.9 µM) | 1.1 | 1.5 | 2.6 | 
C[N+]1=C2C=C(N)C(=O)c3c2c(cn3CCC#N)CC1 [Example 56, 7-Amino-1-(2-cyanoethyl)-1,3,4,8-tetrahydro-5-methyl-8-oxo-pyrrolo[4,3,2-de]quinolinium trifluoroacetate] | 1.4 | 4.7 | 21.5 | 1.56 | 1.0 | 2.0 | 3.1 | 
C[N+]1=C2C=C(NCC(O)c3ccccc3)C(=O)c3[nH]cc(c32)CC1 (centres unmarked) [Example 58, 1,3,4,8-Tetrahydro-7-[2-hydroxy-2-phenylethyl)amino]-5-methyl-8-oxo-pyrrolo[4,3,2-de]quinolinium trifluoroacetate] | 34.0 | 11 | 50 | 0.22 | 1.5 | 167.0 | 227.0 | 
CC[C@]1(O)C[C@H]2CN(CCc3c([nH]c4ccccc34)[C@@](C(=O)OC)(c3cc4c(cc3OC)N(C=O)[C@H]3[C@@](O)(C(=O)OC)[C@H](OC(C)=O)[C@]5(CC)C=CCN6CC[C@]43[C@@H]65)C2)C1 [Vincristine, reference compound] |  |  |  |  |  |  |  | Ovcar3 Min T/C % [5]: 53%; P388 ILS % [8]: > 91%
CINODINE |  |  |  |  |  |  |  | ZONES OF INHIBITION ([15]; 64 microgram/ml): 8 MM; ZONES OF INHIBITION ([15]; 250 microgram/ml): 11 MM; ZONES OF INHIBITION ([15]; 1000 microgram/ml): 13 MM; ZONES OF INHIBITION ([10]; 250 microgram/ml): 7 MM; ZONES OF INHIBITION ([10]; 1000 microgram/ml): 9 MM; ZONES OF INHIBITION ([11]; 1000 microgram/ml): 7 MM; ZONES OF INHIBITION ([14]; 1000 microgram/ml, H = hazy zones): 9 MM; ZONES OF INHIBITION ([16]; 16 microgram/ml): 8 MM; ZONES OF INHIBITION ([16]; 64 microgram/ml): 10 MM; ZONES OF INHIBITION ([16]; 250 microgram/ml): 12 MM; ZONES OF INHIBITION [17]: 8H
